Reference: patent US20080262088A1, “METHODS, COMPOUNDS, AND COMPOSITIONS FOR TREATING METABOLIC DISORDERS AND DIABETES” (priority 2006, published 2008)

Legend:
[1] = test system: patients with AA amyloidosis; conditions: previously tested clinically in patients with AA amyloidosis; cited from earlier work
[2] = test system: Peroxisome proliferator-activated receptor gamma (PPARG); assay: Kidney gene expression, Gene Chip Rat Exon 1.0 ST Array; type: in vivo; conditions: pooled whole kidney RNA, treated vs controls
Description: The effect of the PDS treatment on kidney gene expression was also measured. Briefly, whole kidney RNA was isolated and pooled from 2-4 individual rats from each group (controls and treated group). The polled RNA was then processed using a Gene Chip Rat Exon 1.0 ST Array™ (Affimetrix) according to the manufacturer's standard procedure and analyzed for differential expression between the two groups on gene and exon levels. […] PPARG is a well known transcriptional regulator that regulates lipid, glucose and amino acid metabolism, and this receptor is the main target of the thiazolidinediones used in diabetes mellitus and other diseases that feature insulin resistance.

[3] = test system: Zucker Diabetic Fatty rat (ZDF); assay: Kidney histology (glomerular global score) in ZDF rats; type: in vivo; conditions: after 12 weeks
Description: FIG. 7 is a bar graph showing glomerular global score for control and treated satient Zucker diabetic obese male rats after 12 weeks, according to Example 11(a). Categories: (−) no global score; (±) mild global score; (+) mild to moderate global score; (++) moderate global score.
(§1) Thirty-two, 6 week-old male ZDF rats (Charles River, St. Constant, Canada) were randomized in 2 groups, Treated (PDS; in 1% sucrose drinking solution) and Control (1% sucrose drinking solution), and studied for a period of 12 weeks. […] All rats were fed a high fat/high sucrose diabetogenic diet (Harlan™ TD95217). Body weight, food and drinking solution consumption were measured on a daily basis. Twelve rats from each group were individually housed in metabolic cages for a period of 24 hours once a week. […] At the end of each metabolic cage session, urine output was measured, and blood and urine samples were collected in order to quantify serum and/or urine levels of PDS, creatinine, protein, uric acid, triglycerides, glucose, and electrolytes. […]
Histology was performed on both controls and PDS-treated animals. […] The global score was calculated by summing up the number of observations for each histological parameter (mesangial matrix expansion, glomerular cell proliferation, basement membrane thickening, and glomerular enlargement). […]

[4] = test system: Zucker Diabetic Fatty rat (ZDF); assay: Effect on pancreatic function in ZDF rats (satient insulin, glycemia, diuresis); type: in vivo
Description: (§2) Thirty-two, 6 week-old male ZDF rats (Charles River, St. Constant, Canada) were randomized in 2 groups, Treated (PDS; in 1% sucrose drinking solution) and Control (1% sucrose drinking solution), and studied for a period of 12 weeks. […] All rats were fed a high fat/high sucrose diabetogenic diet (Harlan™ TD95217). Body weight, food and drinking solution consumption were measured on a daily basis. Twelve rats from each group were individually housed in metabolic cages for a period of 24 hours once a week. During week 2, 3, 4 and 5, rats placed in metabolic cages received drinking solution but were placed in fasting condition, whereas during weeks 1, […], 6 to 12, rats were given ad libitum access to food and drinking solution. At the end of each metabolic cage session, urine output was measured, and blood and urine samples were collected in order to quantify serum and/or urine levels of PDS, creatinine, protein, uric acid, triglycerides, glucose, and electrolytes. These variables were used to calculate creatinine clearance (Ccr) and proteinuria, and to evaluate general metabolic and renal health status. At the end of the study, the animals were sacrificed and selected organs were kept for further analysis (e.g. weighing, histology).
As is known, diabetes may be due to a lack of insulin secretion (type I diabetes), or to a resistance of peripheral tissues to insulin action (more insulin is needed to decrease blood glucose to the same level as controls in the same amount of time; type II diabetes). The Zucker obese diabetic rat employed in this study is a model of insulin resistance. Hyperglycemia is almost always observed in this model, despite the initially very high circulating insulin levels that fall down with the progression of the disease due to pancreatic beta cell exhaustion. A beneficial treatment is expected to increase insulin secretion, decrease glucose levels by other means or increase glucose utilization by peripheral tissues.
Results for each time point are represented as median and mean ± SEM. Trend statistics are calculated by two-way ANOVA with or without repeated measures, with p<0.05 considered statistically significant.

[5] = test system: Zucker Diabetic Fatty rat (ZDF); assay: In vivo preventive study of renal function and metabolic status in ZDF rats (serum/urine chemistry, body and organ weights)
Description: The compound 1,3 Propanedisulfonic Acid Disodium Salt (PDS) was selected for a preventive study of renal function in the Zucker rat (ZDF) model as well as its effect on metabolic status and diabetes.
A leading study model for DN is the inbred Zucker Diabetic Fatty rat (ZDF). Given a diabetogenic diet, the ZDF rat will closely mimic human adult onset diabetes (Type 2) and related complications including glomerulosclerosis and renal damage earlier than when fed a normal diet (i.e. 14-18 weeks of age). In addition, obesity, mild hypertension, hypertriglyceridemia, hypercholesterolemia, fasting hyperglycemia, impaired glucose tolerance and hyperinsulinemia, are all major phenotypes featured in the ZDF rat.
as §2
This pre-clinical investigation evaluates the role and efficacy of compound 1,3-Propanedisulfonic Acid Disodium Salt (PDS) (Eprodisate Disodium) as a preventive treatment for DN and related pathophysiology in the ZDF rat model. The primary measured outcome is the attenuation/reversal of creatinine clearance deterioration and of proteinuria. The secondary measured outcome is the impact on the metabolic status in this model.
Results for each time point are represented as median or mean ± SEM. Trend statistics are calculated by two-way ANOVA with or without repeated measures, with p<0.05 considered statistically significant.

[6] = test system: Zucker Diabetic Fatty rat (ZDF); assay: Histology of the pancreas in ZDF rats (islets of Langerhans per field); type: in vivo; conditions: week 12, significant difference, FIG. 11
Description: FIG. 11 is a box graph showing distribution of number of islets of Langerhans per field counted during histology of the pancreas from control and treated Zucker diabetic obese male rats at week 12, according to Example 11(b). Box plot lower limit represents the 25th percentile, whereas higher limit represents 75th percentile. Whiskers above and below indicate 90th and 10th percentiles, and median and mean values are represented by solid and dashed lines respectively.
as §1

SHR rats = assay: In vivo preventive study of pancreatic function in SHR rats (streptozotocine, OGTT); design: species or system rat; conditions: low dose streptozotocine after initiation of treatment, PDS vs vehicle
Description: SHR rats are non-diabetic rats but having insulin resistance. Rats are divided in two groups which are administered PDS or vehicle respectively. After initiation of treatment, all rats are administered streptozotocine at low dose with the aim to chemically destroy a portion of Langerhans islets. Both treated and control rats are challenged by an Oral Glucose Tolerance Test (OGTT) and glucose levels are measured.

[7] = end of 12-week study, not shown

SMILES: O=S(=O)(O)CCCS(=O)(=O)O [1,3-propanedisulfonic acid]
- safety in humans [1]: can be safely used in humans

SMILES: O=S(=O)([O-])CCCS(=O)(=O)[O-].[Na+].[Na+] [PDS, 1,3 Propanedisulfonic Acid Disodium Salt]
- PPARG gene expression in kidney, increase in treatment group [2]: 1.85 fold
- number of genes down regulated in the treatment group ([2]; not shown): 43 genes
- number of genes up regulated in the treatment group ([2]; not shown): 75 genes
- glomerular global score (histology) ([3]; p=0.001, FIG. 7, sum of mesangial matrix expansion, glomerular cell proliferation, basement membrane thickening, glomerular enlargement): lowest scores
- kidney pathology (histology), treated vs control ([3]; not shown separately): less pathology
- glycemia, serum glucose by hexokinase (HK) II method, PDS-treated vs control ([4]; by week 10, p<0.001, FIG. 9A): significantly lower
- glycemia, capillary blood glucose by glucose meter kit, PDS-treated vs control ([4]; by week 10, p=0.002, FIG. 9B): significantly lower
- satient serum insulin (RIA), PDS-treated vs control ([4]; end of the experiment (12 weeks), fed animals, FIG. 8): more than twice as high
- diuresis (urine production), PDS-treated vs control ([4]; from week 9, FIG. 10): lower
- creatinine clearance (body weight corrected), treated vs control ([5]; 12 weeks of treatment, FIG. 2B, slight tendency to be higher weeks 6-8): no significant difference
- clearance of uric acid, treated vs control ([5]; FIG. 4B, body weight corrected): better in treated animals
- proteinuria (urine protein content), treated vs control ([5]; after 8 weeks measurable effect, difference significant at weeks ten and twelve, FIG. 3): lesser proteinuria
- kidney size, treated vs controls ([5]; end of 12-week study): tended to be smaller
- heart weight/BW ratio, treated vs control [5, 7]: no significant difference
- kidney weight/BW ratio, treated vs control [5, 7]: no significant difference
- pancreas weight/BW ratio, treated vs control [5, 7]: no significant difference
- serum triglycerides, PDS-treated vs controls ([5]; from onset of treatment throughout the study, p=0.002, FIG. 6A): consistently lower
- adverse effect at the beginning of the study (little decline in body weight) ([5]; higher concentration of PDS, week 1 (avg 4270 mg/kg/day)): diarrhea
- bodyweight of the treated vs. the control animals ([5]; male ZDF rats, PDS in 1% sucrose drinking solution, 12 weeks, data not shown): not significant difference
- serum creatinine, treated vs control ([5]; satient ZDF rats, 12 weeks, FIG. 2A, stable in both groups): tendency for lower values between treatment weeks 6 and 9
- hyperkalemia (serum potassium), control vs treated ([5]; starting at week 7, weeks 8 to 12, p<0.001, FIG. 5): significantly more severe in the control group
- serum cholesterol, PDS-treated vs control ([5]; treatment week 10, FIG. 6B): significantly lower
- serum cholesterol ([5]; week 12, control 7.1 mmol/L, p<0.001): 4.5 mmol/L
- uric acid levels in serum, control group relative to PDS-treated animals ([5]; weeks 6 to 12, FIG. 4A): consistently higher than values from the PDS-treated animals
- number of islets of Langerhans per field, treated vs controls [6]: higher number
- glucose levels after Oral Glucose Tolerance Test (OGTT) (SHR rats): lower glucose levels than control
